Where no end group is shown, it is not given here.
Tests used:
[1] = Carboxyfluorescein (CF) release assay; assay type: biochemical
Procedure: Liposomes were prepared by thin film hydration, followed by extrusion^19. Stock solutions of the lipids 1-palmitoyl-2-oleoyl-sn-glycero3-phosphatidylcholine (POPC), 1-palmitoyl-2-oleoyl-sn-glycero-3-phosphoL-serine (POPS) and cholesterol (Chol) were mixed at molar ratio 95:0:5, 65:30:5, 70:0:30, 91:1:8 and 81:11:8. The solvent was slowly evaporated via nitrogen stream, then the vials were dried in a vacuum desiccator overnight. Dry films were hydrated by addition of 1 mL 5(6)-carboxyfluorescein solution. The CF solution, presenting self-quenching concentration of CF, was prepared with 50 mM CF dissolved in 10 mM PB buffer and 90 mM NaCl, followed by pH adjustment. CF solution was dispensed on the lipid cake and incubated for 10 min under gentle shaking (50 min-1 on orbital shaker), followed by 1 min vortexing. The liposomes were extruded 21 times with a mini extruder (Avanti Polar Lipids, Inc.), through a 0.1 um membrane (Nucleapore track-etched hydrophilic membrane). The lipids were purified by gel filtration through a PD Mini Trap G-25 column by elution in PB buffer (10 mM).
To study peptide efficacy on liposome membrane disruption, the liposome fluorescence was monitored upon peptide addition by microplate reader (Tecan Infinite M1000 Pro, λex=485 nm, λem=520 nm). Liposomes were diluted to a final concentration of 25 μM with 10 mM PB buffer and incubated with PLNC8 α, PLNC8 β and PLNC8 α/β at concentration of 10^−5-10^2 μM in a 96 well plate at a final volume of 200 μL. Due to the self-quenching concentration of carboxyfluorescein (CF) inside the liposomes, any fluorescence of the liposome-peptide system could be attributed to the liposome membrane disruption. Fluorescence was monitored prior to peptide addition (F0), and continuatively for 30 min. Total CF release (FT) was achieved through addition of 1% Triton X-100. Instantaneous CF release (%) was calculated through the formula 100×(F−F0)/(FT−F0), where F is the instantaneous fluorescence.

Kunjin virus (KUNV) [2] = assay: Flavivirus inhibition assay, crystal violet-based plaque assay (Vero cells); assay type: cell-based; settings: for reduction of viral load: L- or D-PLNC8 αβ (1:1)
human cells = settings: previously shown (ref. 16); cited from earlier work
Kunjin virus (KUNV) [3] = assay: Peptide treatment of KUNV-infected A549 cells (viral mRNA, extracellular virions); settings: A549 infected 1 h, then 10 μM, 48 h; cell culture media
Langat virus (LGTV) [4] = assay type: biochemical; settings: 2 h
SARS-CoV-2 = SARS-CoV-2 virus inhibition assay (plaque assay); assay type: cell-based, Severe Acute Respiratory Syndrome Coronavirus 2; settings: SARS-CoV-2 (1×10^3) exposed 1 h at 37° C., then Vero cells; read-out: concentration for 50% reduction of PFU
[5] = system: Influenza A virus (H1N1/CA09pdm); assay: Influenza A virus inhibition assay (plaque assay); assay type: cell-based; settings: Influenza A virus (1×10^3) pre-treated 1 h at 37° C.; read-out: concentration for 50% reduction of influenza A PFU
Langat virus (LGTV) [6] = assay type: cell-based

Plantaricin NC8 (PLNC8) αβ [PLNC8 αβ]
susceptibility of liposomes (CF release) ([1]; POPC:POPS:Chol (70:0:30), mimicking a eukaryotic plasma membrane): resilient | susceptibility of liposomes (CF release) ([1]; POPC:POPS:Chol (81:11:8), mimicking a eukaryotic ER membrane): very susceptible | susceptibility of liposomes (CF release) ([1]; POPC:POPS:Chol (91:1:8)): more susceptible | reduction of viral load (Kunjin virus (KUNV) [2]; 0.1 μM, KUNV MOI 0.1, 0.01, 0.001, 1 h): 80% | reduction of viral load (Kunjin virus (KUNV) [2]; 1 μM, KUNV MOI 0.1, 0.01, 0.001, 1 h): 95% | elimination of virions (Kunjin virus (KUNV) [2]; ≥10 μM, KUNV MOI 0.1, 0.01, 0.001, 1 h): completely eliminates all virions | cytotoxicity towards human cells (human cells): no cytotoxicity towards human cells | reduction of extracellular virion load (Kunjin virus (KUNV) [3]): 70-80%

SVPTSVYTLGIKILWSAYKHRKTIEKSFNKGFYH, SEQ ID NO:1 [D-PLNC8 β]
permeabilization of the viral envelope (Sytox Green) (Langat virus (LGTV) [4]): permeabilized | IC50 (SARS-CoV-2): 1.4 µM | IC50 [5]: 19 µM

SVPTSVYTLGIKILWSAYKHRKTIEKSFNKGFYH [L-PLNC8 β]
permeabilization of the viral envelope (Sytox Green) (Langat virus (LGTV) [4]): permeabilization of LGTV | decrease of viral load (Langat virus (LGTV) [6]): > 99% | IC50 (SARS-CoV-2): 0.9 to 1 µM | IC50 [5]: > 20 µM

PLNC8 β: peptide of SEQ ID NO:1; statement covers L- and D-enantiomers (FIG. 7) (SVPTSVYTLGIKILWSAYKHRKTIEKSFNKGFYH; also: L- or D-enantiomer covered; listed as Lactobacillus plantarum)
efficiency at eliminating KUNV, single peptides compared (Kunjin virus (KUNV) [2]; 20 μM, L- and D-enantiomers (FIG. 7)): more efficient than PLNC8 α at eliminating KUNV

— patent US20240374680A1, “PHARMACEUTICAL COMPOSITION FOR TREATMENT OF VIRAL INFECTIONS” (Virenc AB, priority 2021, published 2024)
